Results: patent US5770574A, “Long-chain alkylamides of amino acids and peptides with anti-proliferative and anti-inflammatory properties” (ASTA Medica Aktiengesellschaft, priority 1994, dated 1998)

Columns and labels:
[1] = tested on: KB human mucous-membrane carcinoma; assay: inhibition of colony formation in soft agar (colony assay), KB; format: cell-based; conditions: for Cytotoxicity in vitro EC90 KB: concentration giving 90% inhibition of colony formation, determined by graph, 8 days incubation; for activity against KB cells (ranking in words): among the compounds of the table
Experimental: (§1) The effectiveness of the compounds defined in accordance with the invention was tested as to their in vitro cytotoxicity. The investigations about inhibition of colony formation in soft agar (colony assay) were carried out in conformity with the method of Hamburger and Salmon (A. W. Hamburger, S. E. Salmon, "Primary Bioassay of Human Myeloma Stem Cells", J. Clin. Invest. 60: 846-854 (1977); A. W. Hamburger and S. E. Salmon, "Primary Bioassay of Human Tumor Stem Cells", Science 197: 461-463 (1977)). The tumor cells were incubated in RPMI-1640 medium with 20% fetal calf serum and 0.3% agar in the presence of different concentrations of the test substance at 37° C., 95% relative air humidity and 5% CO2. Triple values were taken in each instance. The incubation time was 6 days for L1210 mouse leucemia and 8 days for KB human mucous-membrane carcinoma. The colonies formed (>50 cells) were subsequently counted.

[2] = tested on: L1210 mouse leucemia; assay: inhibition of colony formation in soft agar (colony assay), L1210; format: cell-based; conditions: for Cytotoxicity in vitro EC90 L 1210: concentration giving 90% inhibition of colony formation, determined by graph, 6 days incubation; for activity against L 1210 cells (ranking in words): among the compounds of the table
Experimental: as §1

[3] = tested on: small-cell bronchial carcinoma LXFS 538; assay: human tumors transplanted into the naked mouse, LXFS 538; format: in vivo; conditions: LXFS 538 xenograft, 45 mg/kg i.p. per day 1.5 and 9
Experimental: (§2) The compound H-LYS(LYS)-NHC18 H37.3HCL (D-21621) was tested separately on human tumors transplanted into the naked mouse. […] This tumor is resistant to all standard cytostatic agents.

[4] = tested on: ovarian carcinoma OVXF 899; assay: human tumors transplanted into the naked mouse, OVXF 899; format: in vivo; conditions: OVXF 899 xenograft, same conditions (45 mg/kg i.p. per day 1.5 and 9)
Experimental: as §2

| Compound | Cytotoxicity in vitro EC90 KB [1] [µg/mL] | Cytotoxicity in vitro EC90 L 1210 [2] [µg/mL] | activity against KB cells (ranking in words) [1] | tumor inhibition [3] | tumor inhibition [4] | activity against L 1210 cells (ranking in words) [2] |
| --- | --- | --- | --- | --- | --- | --- |
| CCCCCCCCCCCCCCCCCCNC(=O)C(N)CCCNC(=O)C(N)CCCN.Cl.Cl.Cl [D-20 989, H--ORN(ORN)--NHC18 H37.3HCL] | 1.3 | 3.1 | – | – | – | – |
| Br.Br.Br.CCCCCCCCCCCCCCCCCCNC(=O)C(N)CCCCNC(=O)C(N)CCCCN [D-20 994, H--LYS(LYS)--NHC18 H37.3HBr] | 0.8 | 3.2 | highest activity | – | – | – |
| CCCCCCCCCCCCCCCCCCNC(=O)C(N)CCCCNC(=O)C(N)CCCCN.Cl.Cl.Cl [D-21 621, H--LYS(LYS)--NHC18 H37.3HCl] | 1.4 | 2.2 | – | 37 % of the control | 46 % of the control | – |
| CCCCCCCCCCCCCCNC(=O)C1CSCN1 [D-21 979, H--THZ--NHC14 H29] | 3.1 | 0.3 | – | – | – | highest activity |
| CCCCCCCCCCCCCCCCNC(=O)C1CSCN1 [D-21 980, H--THZ--NHC16 H33] | 3.1 | 3.4 | – | – | – | – |
| CCCCCCCCCCCCCCCCCCNC(=O)C(CCCCN)NC(=O)C(N)CCCCN [D-22 267, H--LYS--LYS--NHC18 H37] | 0.3 | 3.1 | highest activity | – | – | – |
| CCCCCCCCCCCCCCCCCCNC(=O)[C@H](N)CCCCNC(=O)[C@H](N)CCCCN.Cl.Cl.Cl [D-22 628, H--D--LYS(D--LYS)--NHC18 H37.3HCL] | 1.1 | 0.8 | – | – | – | highest activity |
| H--LYS[(LYS)LYS]--NHC18 h37.4HBr [D-20 995] | 0.9 | > 3 | highest activity | – | – | – |
| H--ORN[(ORN)ORN]--NHC18 H37 4HCl [D-20 990] | 1.7 | > 10 | – | – | – | – |
